{
  "source": "patent US20140296153A1",
  "about": "“Oligodendrocyte Differentiation” (priority 2011, published 2014)",
  "key": {"OPC": {"system": "OPC", "details": "cited from earlier work"}, "SVZ cells [1]": {"system": "SVZ cells", "assay": "Single cell calcium imaging (SCCI) of oligodendrocytic differentiation", "assay_type": "cell-based, mouse", "details": "AM251 1 μM co-treated with Hp 1 μM, 7 days, 8 coverslips", "experimental": "To investigate the influence of Hp on oligodendrocytic differentiation, SVZ neurospheres were allowed to develop for 7 days Hp (100 nm, 1 μM), in serum free medium devoid of growth factor at 37° C.\nTo determine the functional differentiation pattern of SVZ cells, we analyzed the variations of intracellular calcium-free levels ([Ca^2+]i) in single cells following stimulation with 50 mM KCl, 100 μM histamine (Sigma-Aldrich, St. Louis, Mo. USA) and 0.1 U/ml thrombin (Sigma-Aldrich) stimulation. KCl depolarization causes an increase in [Ca^2+]i in neurons, whereas stimulation with histamine leads to an increase in [Ca^2+]i in stem/progenitor cells, while thrombin leads to an increase in [Ca^2+]i in oligodendrocytes. SVZ cultures were loaded for 40 minutes with 5 μM Fura—2/AM (Molecular Probes, Carlsbad, Calif., USA), 0.1% fatty acid-free BSA, and 0.02% pluronic acid F-127 (Molecular Probes) in Krebs solution (132 mM NaCl, 4 mM KCl, 1.4 mM MgCl2, 1 mM CaCl2, 6 mM glucose, 10 mM HEPES, pH 7.4), in an incubator with 5% CO2 and 95% atmospheric air at 37° C. After a 10-minute postloading period at room temperature (RT) in the same medium without Fura-2/AM and pluronic acid, to obtain a complete hydrolysis of the probe, the glass coverslip was mounted on an RC-20 chamber in a PH3 platform (Warner Instruments, Hamden, Conn., USA) on the stage of an inverted fluorescence microscope (Axiovert 200, Carl Zeiss). […] The variations of [Ca^2+]i were evaluated by quantifying the ratio of the fluorescence emitted at 510 nm following alternate excitation (750 msec) at 340 and 380 nm, using a Lambda DG4 apparatus (Sutter Instrument, Novato, Calif., USA) and a 510 nm band-pass filter (Carl Zeiss) before fluorescence acquisition with a x40 objective and a CoolSNAP digital camera (Roper Scientific, Trenton, N.J., USA). […] KCl, histamine, and thrombin peaks given by the normalized ratios of fluorescence at 340/380 nm, at the proper time periods, were used to calculate the ratios of the responses to histamine/KCl (Hist/KCl-neuronal-like profile) and to thrombin/histamine (Throm/Hist-oligodendrocytic-like profile).\nFluorescence images were recorded using an LSM 510 Meta confocal microscope or an Axioskop 2 Plus fluorescence microscope (both from Carl Zeiss). […] Percentages of TUNEL or BrdU immunoreactive cells in SVZ cell cultures were calculated from cell counts in five independent microscopic fields in each coverslip with a x40 objective (approximately 200 cells per field). […] For SCCl experiments, the percentage of oligodendrocytic-like responding cells (with a Thromb/Hist ratio above 1.3) was calculated on the basis of one microscopic field per coverslip, containing approximately 100 cells (magnification, ×40). […]"}, "SVZ cells [2]": {"system": "SVZ cells", "assay": "SVZ self-renewal assay (secondary neurospheres)", "assay_type": "cell-based, mouse", "details": "primary neurospheres exposed to HGF 50 ng.ml^−1 for 6 days, replated without HGF"}, "SVZ cells [3]": {"system": "SVZ cells", "assay": "SVZ neurosphere forming assay (primary neurospheres)", "assay_type": "cell-based, mouse", "details": "HGF 50 ng.ml^−1, 6 days, SFM with 5 ng/ml EGF and 2.5 ng/ml FGF-2", "experimental": "Neurosphere forming and self-renewal assays were performed on SVZ cells seeded at clonal density, 2500 cells per well in 24-well cell culture plates in SFM containing 5 ng/ml EGF and 2.5 ng/ml FGF-2 and supplemented or not (control) with 1 μM Hp or 50 ng.ml^−1 hepatocyte growth factor (carrier free recombinant human HGF, R&D Systems, Lille, France). After 6 days, the numbers of primary neurospheres were determined. For self-renewal assay, neurospheres were collected, dissociated as single cells and seeded in SFM containing 5 ng/ml EGF and 2.5 ng/ml FGF-2 in 24 well plates. After 6 days, the number of secondary neurospheres was counted.\nFluorescence images were recorded using an LSM 510 Meta confocal microscope or an Axioskop 2 Plus fluorescence microscope (both from Carl Zeiss). In all experiments, measurements were performed in the border of SVZ neurospheres where migrating cells form a cell monolayer. For the SVZ neurosphere forming and self-renewal assays the experiments were replicated in five independent culture preparations and each experimental condition was assayed in four different coverslips. For the remaining experiments, each condition was assayed in three different coverslips, and except where otherwise specified, the experiments were replicated in three independent culture preparations. Percentages of TUNEL or BrdU immunoreactive cells in SVZ cell cultures were calculated from cell counts in five independent microscopic fields in each coverslip with a x40 objective (approximately 200 cells per field). Software used was Axiovision, release 4.6 (Carl Zeiss). For SCCl experiments, the percentage of oligodendrocytic-like responding cells (with a Thromb/Hist ratio above 1.3) was calculated on the basis of one microscopic field per coverslip, containing approximately 100 cells (magnification, ×40).\nNeural stem-like cells are characterized in vitro by both their capacity to give rise to neurospheres and to self-renew when cultured in the presence of mitogens."}, "[4]": {"details": "administered to rats; cited from earlier work"}, "CB1R": {"target": "CB1R (Homo sapiens, UniProt P21554)", "sequence (P21554 whole entry)": "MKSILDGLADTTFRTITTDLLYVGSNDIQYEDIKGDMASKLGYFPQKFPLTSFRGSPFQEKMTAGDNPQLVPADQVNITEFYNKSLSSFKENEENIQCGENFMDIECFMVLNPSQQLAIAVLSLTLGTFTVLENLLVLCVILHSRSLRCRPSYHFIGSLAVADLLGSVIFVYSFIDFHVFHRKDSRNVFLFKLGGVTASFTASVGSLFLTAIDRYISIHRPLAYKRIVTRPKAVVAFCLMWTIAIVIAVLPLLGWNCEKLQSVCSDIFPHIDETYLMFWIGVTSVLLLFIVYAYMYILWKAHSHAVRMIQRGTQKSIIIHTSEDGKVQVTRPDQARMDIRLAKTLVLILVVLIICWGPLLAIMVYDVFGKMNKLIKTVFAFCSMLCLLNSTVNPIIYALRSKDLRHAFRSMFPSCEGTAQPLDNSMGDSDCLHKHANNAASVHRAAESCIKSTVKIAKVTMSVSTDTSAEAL", "details": "cited from earlier work"}},
  "data": [
    {"compound": "COc1ccc(C(=O)c2c(C)n(CCN3CCOCC3)c3cc(I)ccc23)cc1", "note": "[AM630]", "values": [
      {"measurement": "OPC differentiation into mature oligodendrocytes", "setting": "OPC", "value": "do not induce but impair"}
    ]},
    {"compound": "Cc1c(C(=O)NN2CCCCC2)nn(-c2ccc(Cl)cc2Cl)c1-c1ccc(I)cc1", "note": "[Am 251, reference compound]", "values": [
      {"measurement": "cells responding with a Throm/Hist ratio above 1.3 (oligodendrocyte-like responding cells)", "setting": "SVZ cells [1]", "value": "1.07±0.24", "unit": "%"}
    ]},
    {"compound": "Cc1c(C(=O)NN2CCCCC2)nn(-c2ccc(Cl)cc2Cl)c1-c1ccc(Cl)cc1", "note": "[rimonabant]", "values": [
      {"measurement": "OPC differentiation into mature oligodendrocytes", "setting": "OPC", "value": "do not induce but impair"}
    ]},
    {"compound": "HGF: carrier free recombinant human HGF, used as a positive control", "values": [
      {"measurement": "number of secondary neurospheres (control 100%)", "setting": "SVZ cells [2]", "value": "120.0±11.54", "unit": "%"},
      {"measurement": "number of primary neurospheres (control 100%)", "setting": "SVZ cells [3]", "value": "121.0±13.14", "unit": "%"}
    ]},
    {"compound": "PVNFKWLSH (listed as Homo sapiens) [SEQ ID 4, variant of Hp peptide]", "values": [
      {"measurement": "periepididymal and visceral fat content compared to the control group", "setting": "[4]", "value": "reduced"}
    ]},
    {"compound": "RVDPVNFKFLSH (listed as Homo sapiens) [SEQ. ID. 3, N-terminally extended variant of Hp, Arg Val Asp Pro Val Asn Phe Lys Phe Leu Ser His]", "values": [
      {"measurement": "activity at CB1R cannabinoid receptors", "setting": "CB1R", "value": "function as agonists"}
    ]},
    {"compound": "VDPVNFKFLSH (listed as Homo sapiens) [SEQ. ID. 2, N-terminally extended variant of Hp, Val Asp Pro Val Asn Phe Lys Phe Leu Ser His]", "values": [
      {"measurement": "activity at CB1R cannabinoid receptors", "setting": "CB1R", "value": "function as agonists"}
    ]}
  ]
}
